Laboratory results taken from ChEMBL document CHEMBL1909046, “DrugMatrix in vitro pharmacology data”.

Columns and labels:
[1] = biological target: T1, Muscarinic acetylcholine receptor M2 (Homo sapiens, UniProt P08172); assay type: cell membranes, CHO-K1, Membrane; conditions: for Ki: read-out: Ki; on all read-outs here: in other assays of this panel Not Active means under 50% inhibition at 10 µM
T1 sequence (P08172 whole entry): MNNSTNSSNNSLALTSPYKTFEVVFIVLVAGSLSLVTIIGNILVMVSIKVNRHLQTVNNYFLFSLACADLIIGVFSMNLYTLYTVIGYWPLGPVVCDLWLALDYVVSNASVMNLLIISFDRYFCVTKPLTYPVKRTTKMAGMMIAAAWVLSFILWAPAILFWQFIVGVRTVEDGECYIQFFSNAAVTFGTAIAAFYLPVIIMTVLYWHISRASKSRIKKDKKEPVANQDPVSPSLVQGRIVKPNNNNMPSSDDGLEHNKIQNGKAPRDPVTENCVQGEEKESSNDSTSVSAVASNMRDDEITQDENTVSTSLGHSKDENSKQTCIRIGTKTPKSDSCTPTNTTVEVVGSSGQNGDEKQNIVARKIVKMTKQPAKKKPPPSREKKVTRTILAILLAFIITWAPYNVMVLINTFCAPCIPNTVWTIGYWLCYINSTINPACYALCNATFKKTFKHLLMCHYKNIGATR

[2] = biological target: T2, Alpha-1A adrenergic receptor (Rattus norvegicus, UniProt P43140); experiment: DRUGMATRIX: Alpha-1A adrenergic receptor radioligand binding (ligand: prazosin); assay type: cell membranes, Wistar, Submaxillary gland, Membrane; conditions: Not Active = under 50% inhibition at 10 µM
T2 sequence (P43140 whole entry): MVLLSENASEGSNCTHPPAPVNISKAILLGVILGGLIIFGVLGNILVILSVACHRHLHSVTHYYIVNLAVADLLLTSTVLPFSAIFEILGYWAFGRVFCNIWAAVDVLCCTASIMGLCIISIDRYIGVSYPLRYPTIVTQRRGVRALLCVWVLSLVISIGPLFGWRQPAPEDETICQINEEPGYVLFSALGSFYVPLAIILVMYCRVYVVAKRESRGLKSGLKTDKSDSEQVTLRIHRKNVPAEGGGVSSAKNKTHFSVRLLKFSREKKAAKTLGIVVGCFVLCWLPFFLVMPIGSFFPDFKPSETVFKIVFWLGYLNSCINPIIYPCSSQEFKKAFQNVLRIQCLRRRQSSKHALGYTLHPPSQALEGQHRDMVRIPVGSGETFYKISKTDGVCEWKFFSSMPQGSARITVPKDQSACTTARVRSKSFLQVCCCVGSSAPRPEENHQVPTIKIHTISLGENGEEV

[3] = DRUGMATRIX: Atrial Natriuretic Factor (ANF) radioligand binding (ligand: [125I] ANF (rat)); assay type: cell membranes, Cavia porcellus, Dunkin-Hartley, Adrenal gland, Membrane; conditions: Not Active = under 50% inhibition at 10 µM
[4] = DRUGMATRIX: Glutamate, Kainate radioligand binding (ligand: [3H] Kainic acid); assay type: cell membranes, Rattus norvegicus, Wistar, Brain, Membrane; conditions: Not Active = under 50% inhibition at 10 µM
[5] = biological target: T3, Vasoactive intestinal polypeptide receptor 1 (Homo sapiens, UniProt P32241); assay type: cell membranes, Membrane; conditions: ht-29; further: in other assays of this panel Not Active means under 50% inhibition at 10 µM
T3 sequence (P32241 whole entry): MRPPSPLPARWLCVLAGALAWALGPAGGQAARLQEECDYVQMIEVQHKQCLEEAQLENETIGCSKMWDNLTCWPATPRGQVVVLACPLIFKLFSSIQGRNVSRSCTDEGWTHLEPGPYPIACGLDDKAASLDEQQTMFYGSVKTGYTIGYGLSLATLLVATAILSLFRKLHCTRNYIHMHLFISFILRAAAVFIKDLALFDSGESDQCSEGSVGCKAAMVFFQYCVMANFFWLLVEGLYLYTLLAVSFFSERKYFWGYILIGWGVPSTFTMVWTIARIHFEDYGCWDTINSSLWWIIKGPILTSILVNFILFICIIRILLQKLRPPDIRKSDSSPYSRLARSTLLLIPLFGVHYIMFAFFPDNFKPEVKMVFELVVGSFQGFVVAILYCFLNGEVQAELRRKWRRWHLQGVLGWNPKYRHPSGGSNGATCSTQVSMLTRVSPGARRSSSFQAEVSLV

[6] = biological target: Delta-type opioid receptor (Homo sapiens, UniProt P41143); assay type: cell membranes, HEK293, Membrane; conditions: hek293; further: in other assays of this panel Not Active means under 50% inhibition at 10 µM
Delta-type opioid receptor, sequence (P41143 whole entry): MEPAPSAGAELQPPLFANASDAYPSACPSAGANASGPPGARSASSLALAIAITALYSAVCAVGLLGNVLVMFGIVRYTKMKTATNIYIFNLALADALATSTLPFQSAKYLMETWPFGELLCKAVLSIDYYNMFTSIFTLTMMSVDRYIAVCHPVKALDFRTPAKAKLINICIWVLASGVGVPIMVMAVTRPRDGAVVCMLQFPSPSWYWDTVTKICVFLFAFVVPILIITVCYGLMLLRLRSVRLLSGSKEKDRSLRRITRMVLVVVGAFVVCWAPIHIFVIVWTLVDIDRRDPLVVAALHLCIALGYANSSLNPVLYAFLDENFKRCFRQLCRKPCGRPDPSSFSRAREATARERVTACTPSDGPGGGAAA

[7] = biological target: Protein kinase C alpha type (Homo sapiens, UniProt P17252); assay type: cell-based; conditions: sf9;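 further: inhibition of PKCalpha kinase activity measured in an enzyme assay with histone as the phosphorylation substrate; in other assays of this panel Not Active means under 50% inhibition at 10 µM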

## C[C@@H]1C/C=C/C=C/C=C/C=C/[C@H](O[C@@H]2O[C@H](C)[C@@H](O)[C@H](N)[C@@H]2O)C[C@@H]2O[C@](O)(C[C@@H](O)C[C@H]3O[C@@H]3/C=C/C(=O)O1)C[C@H](O)[C@H]2C(=O)O [NATAMYCIN]
[1]; cho-k1
  IC50: Not Active
[2]
  IC50: Not Active
[3]
  IC50: Not Active
  Ki: Not Active
[4]
  IC50: Not Active
  Ki: Not Active
[5]
  IC50: Not Active
[6]
  IC50: Not Active
[7]
  IC50: Not Active

## C[C@H]1O[C@H](O[C@H]2[C@H](O)[C@@H](O)[C@@H](O[C@H]3[C@H](O)[C@@H](O)C(O)O[C@@H]3CO)O[C@@H]2CO)[C@H](O)[C@@H](O)[C@@H]1N[C@H]1C=C(CO)[C@@H](O)[C@H](O)[C@H]1O (stereo not given in full) [ACARBOSE]
[1]; cho-k1
  IC50: Not Active
[2]
  IC50: Not Active
[3]
  IC50: Not Active
  Ki: Not Active
[4]
  IC50: Not Active
  Ki: Not Active
[5]
  IC50: Not Active
[6]
  IC50: Not Active
[7]
  IC50: Not Active

## CN(C)C(=N)NC(=N)N [METFORMIN]
[1]; cho-k1
  IC50: Not Active
[2]
  IC50: Not Active
[3]
  IC50: Not Active
  Ki: Not Active
[4]
  IC50: Not Active
  Ki: Not Active
[5]
  IC50: Not Active
[6]
  IC50: Not Active
[7]
  IC50: Not Active

## CCc1ccc(CCOc2ccc(CC3SC(=O)NC3=O)cc2)nc1 (stereo not given) [PIOGLITAZONE]
[1]; cho-k1
  IC50: Not Active
[2]
  IC50: Not Active
[3]
  IC50: Not Active
  Ki: Not Active
[4]
  IC50: Not Active
  Ki: Not Active
[5]
  IC50: Not Active
[6]
  IC50: Not Active
[7]
  IC50: Not Active

## CN1CCN(C(c2ccccc2)c2ccccc2)CC1 [CYCLIZINE]
[1]; read-out: IC50
  IC50: 1.16 µM
[1]
  Ki: 0.412 µM
[2]
  IC50: Not Active
[3]
  IC50: Not Active
  Ki: Not Active
[4]
  IC50: Not Active
  Ki: Not Active
[5]
  IC50: Not Active
[6]
  IC50: Not Active
[7]
  IC50: Not Active

## Cn1c(=O)c2c(ncn2C)n(C)c1=O [CAFFEINE]
[1]; cho-k1
  IC50: Not Active
[2]
  IC50: Not Active
[3]
  IC50: Not Active
  Ki: Not Active
[4]
  IC50: Not Active
  Ki: Not Active
[5]
  IC50: Not Active
[6]
  IC50: Not Active
[7]
  IC50: Not Active

## COc1cc(OC)c(C(=O)CCCN2CCCC2)c(OC)c1 [BUFLOMEDIL]
[1]; cho-k1
  IC50: Not Active
[2]
  IC50: Not Active
[3]
  IC50: Not Active
  Ki: Not Active
[4]
  IC50: Not Active
  Ki: Not Active
[5]
  IC50: Not Active
[6]
  IC50: Not Active
[7]
  IC50: Not Active

## C[C@]12CC[C@H]3[C@@H](CCC4=CC(=O)CC[C@@H]43)[C@@H]1CC[C@@H]2O [NANDROLONE]
[1]; cho-k1
  IC50: Not Active
[2]
  IC50: Not Active
[3]
  IC50: Not Active
  Ki: Not Active
[4]
  IC50: Not Active
  Ki: Not Active
[5]
  IC50: Not Active
[6]
  IC50: Not Active
[7]
  IC50: Not Active

## CS(=O)(=O)Nc1ccc([N+](=O)[O-])cc1Oc1ccccc1 [NIMESULIDE]
[1]; cho-k1
  IC50: Not Active
[2]
  IC50: Not Active
[3]
  IC50: Not Active
  Ki: Not Active
[4]
  IC50: Not Active
  Ki: Not Active
[5]
  IC50: Not Active
[6]
  IC50: Not Active
[7]
  IC50: Not Active

## CN1CCC(=C2c3ccccc3CC(=O)c3sccc32)CC1 [KETOTIFEN]
[1]; read-out: IC50
  IC50: 0.838 µM
[1]
  Ki: 0.298 µM
[2]
  IC50: Not Active
[3]
  IC50: Not Active
  Ki: Not Active
[4]
  IC50: Not Active
  Ki: Not Active
[5]
  IC50: Not Active
[6]
  IC50: Not Active
[7]
  IC50: Not Active

## NC12CC3CC(CC(C3)C1)C2 [AMANTADINE]
[1]; cho-k1
  IC50: Not Active
[2]
  IC50: Not Active
[3]
  IC50: Not Active
  Ki: Not Active
[4]
  IC50: Not Active
  Ki: Not Active
[5]
  IC50: Not Active
[6]
  IC50: Not Active
[7]
  IC50: Not Active

## NC(=O)N1c2ccccc2CC(=O)c2ccccc21 [OXCARBAZEPINE]
[1]; cho-k1
  IC50: Not Active
[2]
  IC50: Not Active
[3]
  IC50: Not Active
  Ki: Not Active
[4]
  IC50: Not Active
  Ki: Not Active
[5]
  IC50: Not Active
[6]
  IC50: Not Active
[7]
  IC50: Not Active
